Measured values reported in US20210252015A1, “CERTAIN (2S)-N-[(1S)-1-CYANO-2-PHENYLETHYL]-1,4-OXAZEPANE-2-CARBOXAMIDES FOR TREATING INFLAMMATORY BOWEL DISEASE” (Insmed Incorporated, priority 2018, published 2021).

Test system: DSS-induced colitis in C57BL/6 mice
Assay: DSS-induced colitis model, mean over animals of Examples 1A and 1B
Type: in vivo
Conditions: vs vehicle control
Procedure: Mean Endoscopy/Stool Consistency Scores and Mean Weight Change: The mean of the endoscopy and stool consistency scores from Days 10 and 14 observed from Examples 1A and 1B was determined to provide a mean endoscopy score and mean stool consistency score for Days 10 and 14 in the DSS-induced colitis model (i.e., mean that includes the animals from Examples 1A and 1B). FIGS. 11A and 12A show the Mean Endoscopy score. FIGS. 11B and 12B show the Mean Stool Consistency score.
The percent change in body weight on Day 14 from Examples 1A and 1B were averaged to provide mean percent body weight change for Day 14 in the DSS-induced colitis model (i.e., mean that includes the animals from Examples 1A and 1B).

Cn1c(=O)oc2ccc(-c3ccc(C[C@@H](C#N)NC(=O)[C@@H]4CNCCCO4)cc3)cc21 [INS1007, (2S)—N-{(1S)-1-cyano-2-[4-(3-methyl-2-oxo-2,3-dihydro-1,3-benzoxazol-5-yl)phenyl]ethyl}-1,4-oxazepane-2-carboxamide]
significantly reduced: mean endoscopy score (Examples 1A and 1B) (Day 10, 0.3 mg/kg) | mean stool consistency score (Examples 1A and 1B) (Day 10, 0.3 mg/kg) | mean endoscopy score (Examples 1A and 1B) (Day 10, 3 mg/kg) | average mean endoscopy score (Examples 1A and 1B) (Day 14, 0.3 mg/kg) | average mean weight change (percent body weight change, Examples 1A and 1B) (Day 14, 0.3 mg/kg, lost less weight) | stool consistency score (Examples 1A and 1B) (Day 14, 3 mg/kg)
